According to patent publication US12344621B2, “CGRP antagonist compounds” (Nxera Pharma UK Limited, priority 2019, dated 2025):

These molecules were tested against T1, human CGRP receptor (Homo sapiens, UniProt O60894+Q16602) (assay: cAMP functional assay (HTRF cAMP dynamic-2) in SK-N-MC cells). Conditions: SK-N-MC cells endogenously expressing human CGRP receptor; challenge with EC80 human CGRP (0.3 nM); functional pKb converted from pIC50 by modified Cheng-Prussoff equation.
T1 construct: SK-N-MC endogenously expressing the human CGRP receptor; endogenous in cells; host or cells: SK-N-MC human neuroblastoma cells
T1 sequence (Q16602 23-461): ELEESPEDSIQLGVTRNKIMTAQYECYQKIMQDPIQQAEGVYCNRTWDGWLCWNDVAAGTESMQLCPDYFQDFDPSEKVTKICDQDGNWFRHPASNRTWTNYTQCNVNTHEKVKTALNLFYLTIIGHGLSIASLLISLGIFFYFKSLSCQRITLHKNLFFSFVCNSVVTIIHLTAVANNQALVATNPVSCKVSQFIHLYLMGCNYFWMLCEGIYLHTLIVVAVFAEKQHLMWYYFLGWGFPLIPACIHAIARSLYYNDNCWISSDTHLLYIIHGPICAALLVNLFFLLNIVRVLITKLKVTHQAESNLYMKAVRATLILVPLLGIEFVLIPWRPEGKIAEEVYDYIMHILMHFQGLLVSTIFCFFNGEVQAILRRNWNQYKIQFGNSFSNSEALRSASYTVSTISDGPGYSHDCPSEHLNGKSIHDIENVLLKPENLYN
T1 sequence (O60894 27-148): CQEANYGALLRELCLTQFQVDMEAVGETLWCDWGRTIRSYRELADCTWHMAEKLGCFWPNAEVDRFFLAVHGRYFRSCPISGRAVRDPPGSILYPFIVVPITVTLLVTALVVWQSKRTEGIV
Type: cell-based
Protocol: Biological Activity cAMP Functional Assay
cAMP production following receptor activation was determined using the Homogeneous Time-Resolved Fluorescence (HTRF) cAMP dynamic-2 assay (Cisbio, France). The human neuroblastoma cell line SK-N-MC endogenously expressing the human CGRP receptor was seeded at a density of 12,500 cells/well in solid walled 96 well half area plates (Costar, Catalog Number 3688, Corning Life Sciences, Germany). After 16 h incubation at 37° C. media was removed and cells were incubated at 37° C. for 30 min in serum free media containing 500 μM IBMX (Tocris, Abingdon, UK, Catalog Number 2845) and increasing concentrations of test antagonist. Following this cells were challenged with an EC80 concentration of human CGRP (0.3 nM) for a further 30 min at 37° C. and then cAMP production was determined as manufacturer's instructions before plates were read on a PheraStar fluorescence plate reader (BMG LabTech, Germany). IC50 values were derived from the inhibition curve. The pIC50 values (where pIC50=−log 10 IC50) were converted to a functional pKb value using a modified Cheng-Prussoff equation where Kd=agonist EC50 and L hot=agonist challenge concentration. The pKb values of certain compounds of the invention are detailed in Table 4.

**Q.** How did the Kb turn out when `Cc1cc(C[C@@H]2OC(=O)c3cnc4c(c3)C[C@@]3(C4)C(=O)Nc4ncc(cc43)/C=C/COCCOCCN(C)C2=O)cc2cn[nH]c12` [Example 4-2, (1S,10S,20E)-12-methyl-10-[(7-methyl-1H-indazol-5-yl)methyl]-9,15,18-trioxa-5,12,24,26-tetrazapentacyclo[20.5.2.11,4.13,7.025,28]hentriaconta-3,5,7(30),20,22(29),23,25(28)-heptaene-8,11,27-trione] was run?
**A.** Its Kb is 3.16 nM.

**Q.** `Cc1cc(C[C@H]2OC(=O)N3CCC4(CC3)OC(=O)Nc3ncc(cc34)CCCOCCCCCN(C)C2=O)cc2cn[nH]c12` [Example 7-6, (7R)-9-methyl-7-[(7-methyl-1H-indazol-5-yl)methyl]-6,15,25-trioxa-4,9,21,23-tetrazatetracyclo[17.6.2.21,4.022,26]nonacosa-19(27),20,22(26)-triene-5,8,24-trione] was tested. Which Kb did it give?
**A.** The Kb was 0.251 nM.

**Q.** With `Cc1cc(C[C@H]2OC(=O)c3ccc4c(c3)C[C@]3(C4)C(=O)Nc4ncc(cc43)/C=C/COCCOCCN(C)C2=O)cc2cn[nH]c12` [Example 5-1, (1S,10R,20E)-12-methyl-10-[(7-methyl-1H-indazol-5-yl)methyl]-9,15,18-trioxa-12,24,26-triazapentacyclo[20.5.2.11,4.13,7.025,28]hentriaconta-3,5,7(30),20,22(29),23,25(28)-heptaene-8,11,27-trione] as the molecule, how does the Kb read?
**A.** The Kb was 0.501 nM.

**Q.** For `Cc1cc(C[C@H]2NC(=O)c3cnc4c(c3)C[C@@]3(C4)C(=O)Nc4ncc(cc43)/C=C/COCCCCN(C)C2=O)cc2cn[nH]c12` [Example 1-7, (1S,10R,19E)-12-methyl-10-[(7-methyl-1H-indazol-5-yl)methyl]-17-oxa-5,9,12,23,25-pentazapentacyclo[19.5.2.11,4.13,7.024,27]triaconta-3,5,7(29),19,21(28),22,24(27)-heptaene-8,11,26-trione], which Kb is on record?
**A.** The Kb was 0.0631 nM.

**Q.** How did the Kb turn out when `Cc1cc(C[C@H]2NC(=O)c3cc4c(cn3)C[C@]3(C4)C(=O)Nc4ncc(cc43)/C=C/COCCOCCN(C)C2=O)cc2cnn(C)c12` [Example 2-4, (1S,10R,20E)-10-[(1,7-dimethylindazol-5-yl)methyl]-12-methyl-15,18-dioxa-6,9,12,24,26-pentazapentacyclo[20.5.2.11,4.13,7.025,28]hentriaconta-3,5,7(30),20,22(29),23,25(28)-heptaene-8,11,27-trione] was run?
**A.** Its Kb is 25.1 nM.

**Q.** Which Kb does the source give for `Cc1cc(C[C@H]2NC(=O)c3ccc4c(c3)C[C@]3(C4)C(=O)Nc4ncc(cc43)/C=C/COCCCCN(C)C2=O)cc2cn[nH]c12` [Example 3-4, (1S,10R,19E)-12-methyl-10-[(7-methyl-1H-indazol-5-yl)methyl]-17-oxa-9,12,23,25-tetrazapentacyclo[19.5.2.11,4.13,7.024,27]triaconta-3,5,7(29),19,21(28),22,24(27)-heptaene-8,11,26-trione] here?
**A.** The Kb was 0.316 nM.

**Q.** With `Cc1cc(C[C@H]2NC(=O)c3ccc4c(c3)C[C@]3(C4)C(=O)Nc4ncc(cc43)/C=C/COCCN(C)CCN(C)C2=O)cc2cn[nH]c12` [Example 3-5, (1S,10R,20E)-12,15-dimethyl-10-[(7-methyl-1H-indazol-5-yl)methyl]-18-oxa-9,12,15,24,26-pentazapentacyclo[20.5.2.11,4.13,7.025,28]hentriaconta-3,5,7(30),20,22(29),23,25(28)-heptaene-8,11,27-trione] as the molecule, how does the Kb read?
**A.** Its Kb is 0.398 nM.

**Q.** Which Kb does the source give for `Cc1cc(C[C@H]2OC(=O)N3CCC4(CC3)OC(=O)Nc3ncc(cc34)CCCOCCOCCCN(C)C2=O)cc2cn[nH]c12` [Example 7-7, (7R)-9-methyl-7-[(7-methyl-1H-indazol-5-yl)methyl]-6,13,16,26-tetraoxa-4,9,22,24-tetrazatetracyclo[18.6.2.21,4.023,27]triaconta-20(28),21,23(27)-triene-5,8,25-trione] here?
**A.** Its Kb is 3.98 nM.

**Q.** `Cc1cc(C[C@H]2OC(=O)c3ccc4c(c3)C[C@@]3(C4)C(=O)Nc4ncc(cc43)/C=C/COCCOCCN(C)C2=O)cc2cn[nH]c12` [Example 5-2, (1R,10R,20E)-12-methyl-10-[(7-methyl-1H-indazol-5-yl)methyl]-9,15,18-trioxa-12,24,26-triazapentacyclo[20.5.2.11,4.13,7.025,28]hentriaconta-3,5,7(30),20,22(29),23,25(28)-heptaene-8,11,27-trione] was tested. Which Kb did it give?
**A.** The Kb was 0.398 nM.

**Q.** Which Kb does the source give for `Cc1cc(C[C@H]2NC(=O)c3ccc4c(c3)C[C@]3(C4)C(=O)Nc4ncc(cc43)/C=C/COCCNCCN(C)C2=O)cc2cn[nH]c12` [Example 3-6, (1S,10R,20E)-12-methyl-10-[(7-methyl-1H-indazol-5-yl)methyl]-18-oxa-9,12,15,24,26-pentazapentacyclo[20.5.2.11,4.13,7.025,28]hentriaconta-3,5,7(30),20,22(29),23,25(28)-heptaene-8,11,27-trione] here?
**A.** Its Kb is 0.501 nM.

**Q.** With `Cc1cc(C[C@H]2NC(=O)c3cc4c(cn3)C[C@@]3(C4)C(=O)Nc4ncc(cc43)/C=C/CN(C)CCCCCN(C)C2=O)cc2cn[nH]c12` [Example 2-3, (1R,10R,20E)-12,18-dimethyl-10-[(7-methyl-1H-indazol-5-yl)methyl]-6,9,12,18,24,26-hexazapentacyclo[20.5.2.11,4.13,7.025,28]hentriaconta-3,5,7(30),20,22(29),23,25(28)-heptaene-8,11,27-trione] as the molecule, how does the Kb read?
**A.** Its Kb is 1.26 nM.

**Q.** With `Cc1cc(C[C@H]2NC(=O)c3cnc4c(c3)C[C@]3(C4)C(=O)Nc4ncc(cc43)/C=C/COCCOCCN(C)C2=O)cc2cn[nH]c12` [Example 1-2, (1R,10R,20E)-12-methyl-10-[(7-methyl-1H-indazol-5-yl)methyl]-15,18-dioxa-5,9,12,24,26-pentazapentacyclo[20.5.2.11,4.13,7.025,28]hentriaconta-3,5,7(30),20,22(29),23,25(28)-heptaene-8,11,27-trione] as the molecule, how does the Kb read?
**A.** The Kb was 200 nM.

**Q.** Which Kb does the source give for `Cc1cc(C[C@@H]2NC(=O)c3cnc4c(c3)C[C@@]3(C4)C(=O)Nc4ncc(cc43)/C=C/COCCOCCN(C)C2=O)cc2cn[nH]c12` [Example 1-3, (1S,10S,20E)-12-methyl-10-[(7-methyl-1H-indazol-5-yl)methyl]-15,18-dioxa-5,9,12,24,26-pentazapentacyclo[20.5.2.11,4.13,7.025,28]hentriaconta-3,5,7(30),20,22(29),23,25(28)-heptaene-8,11,27-trione] here?
**A.** The Kb was 10 nM.

**Q.** How did the Kb turn out when `Cc1cc(C[C@H]2NC(=O)c3cc4c(cn3)C[C@@]3(C4)C(=O)Nc4ncc(cc43)/C=C/COCCCCN(C)C2=O)cc2cnn(C)c12` [Example 2-7, (1R,10R,19E)-10-[(1,7-dimethylindazol-5-yl)methyl]-12-methyl-17-oxa-6,9,12,23,25-pentazapentacyclo[19.5.2.11,4.13,7.024,27]triaconta-3,5,7(29),19,21(28),22,24(27)-heptaene-8,11,26-trione] was run?
**A.** The Kb was 1 nM.

**Q.** Which Kb does the source give for `Cc1cc(C[C@H]2NC(=O)c3ccc4c(n3)CC3(C4)C(=O)Nc4ncc(cc43)/C=C/COCCOCCN(C)C2=O)cc2cn[nH]c12` (single isomer, unassigned) [Example 8-2] here?
**A.** Its Kb is 31.6 nM.

**Q.** For `Cc1cc(C[C@H]2NC(=O)c3cc4c(cn3)C[C@@]3(C4)C(=O)Nc4ncc(cc43)/C=C/COCCOCCN(C)C2=O)cc2cnn(C)c12` [Example 2-5, (1R,10R,20E)-10-[(1,7-dimethylindazol-5-yl)methyl]-12-methyl-15,18-dioxa-6,9,12,24,26-pentazapentacyclo[20.5.2.11,4.13,7.025,28]hentriaconta-3,5,7(30),20,22(29),23,25(28)-heptaene-8,11,27-trione], which Kb is on record?
**A.** The Kb was 0.501 nM.

**Q.** For `Cc1cc(C[C@H]2NC(=O)c3ccc4c(c3)C[C@]3(C4)C(=O)Nc4ncc(cc43)/C=C/COCCOCCN(C)C2=O)cc2cn[nH]c12` [Example 3-2, (1S,10R,20E)-12-methyl-10-[(7-methyl-1H-indazol-5-yl)methyl]-15,18-dioxa-9,12,24,26-tetrazapentacyclo[20.5.2.11,4.13,7.025,28]hentriaconta-3,5,7(30),20,22(29),23,25(28)-heptaene-8,11,27-trione], which Kb is on record?
**A.** The Kb was 0.631 nM.

**Q.** For `CN1CCOCCOC/C=C/c2cnc3c(c2)[C@]2(Cc4ccc(cc4C2)C(=O)NC(Cc2cc(Cl)c4[nH]ncc4c2)C1=O)C(=O)N3` (mixture of isomers) [Example 3-9, (1R,20E)-10-[(7-chloro-1H-indazol-5-yl)methyl]-12-methyl-15,18-dioxa-9,12,24,26-tetrazapentacyclo[20.5.2.11,4.13,7.025,28]hentriaconta-3,5,7(30),20,22(29),23,25(28)-heptaene-8,11,27-trione], which Kb is on record?
**A.** The Kb was 1.26 nM.

**Q.** Which Kb does the source give for `Cc1cc(C[C@H]2OC(=O)N3CCC4(CC3)OC(=O)Nc3ncc(cc34)/C=C/COCCOCCCN(C)C2=O)cc2cn[nH]c12` [Example 7-4, (7R,18E)-9-methyl-7-[(7-methyl-1H-indazol-5-yl)methyl]-6,13,16,26-tetraoxa-4,9,22,24-tetrazatetracyclo[18.6.2.21,4.023,27]triaconta-18,20(28),21,23(27)-tetraene-5,8,25-trione] here?
**A.** Its Kb is 1.26 nM.

**Q.** `Cc1cc(C[C@H]2OC(=O)N3CCC4(CC3)OC(=O)Nc3ncc(cc34)/C=C/COCCOCCOCCN(C)C2=O)cc2cn[nH]c12` [Example 7-2, (7R,20E)-9-methyl-7-[(7-methyl-1H-indazol-5-yl)methyl]-6,12,15,18,28-pentaoxa-4,9,24,26-tetrazatetracyclo[20.6.2.21,4.025,29]dotriaconta-20,22(30),23,25(29)-tetraene-5,8,27-trione] was tested. Which Kb did it give?
**A.** Its Kb is 2 nM.
